Values quoted from earlier work, collected in patent publication US20030143291A1, “Herbal compositions and methods for diabetes and weight loss management” (priority 2002, published 2003).

Tests used:
[1] = tested on: Staphylococcus aures
[2] = tested on: Methicillin-resistant s. aureus

CC(C)C1=C2CCC(COC(=O)c3ccc(O)cc3)=CCC2(C)CC1 (centres unmarked) [Compound 6, 14-(4′-hydroxybenzoyloxy)dauc-4,8-diene]
antimicrobial activity against Staphylococcus aures [1]: antimicrobial activity
antimicrobial activity against Methicillin-resistant s. aureus [2]: antimicrobial activity
